Data as given in patent US7696167B2, “Cyclic peptide compound” (Astellas Pharma Inc., priority 2004, dated 2010).

Test system: HCV replicon
Type: cell-based, hepatitis C virus
Settings: HCV replicon cells, two days with compound, replicon RNA corrected by GAPDH; read-out: HCV replicon inhibitory activity: EC50
Protocol: The inhibitory activity against the replication of HCV replicon was evaluated by determining the amount of replicon RNA, purified from cell lysate with a conventional column method, using real-time RT-PCR based on Taq-Man chemistry. The assay was carried out with the modified method reported by Lohmann et al., Science 285: 100 (1999) and Takeuchi et al., Gastroenterology 116: 636-642 (1999). The details thereof are described in the following.
7.5×10^3 HCV replicon cells in 0.1 ml of D-MEM medium containing 5% fetal bovine serum and 300 μg/ml of G418 (Kishine et al., B.B.R.C. 293: 993-999 (2002)) were seeded in each well of a 96-well microtiter plate (Corning Inc.). After the plate was incubated at 37° C. for 16 hours in 5% CO2, the medium was replaced with the above-mentioned medium in which the test compound was dissolved. […]
RT-PCR was carried out by using the ABI PRISM 7900HT sequence detection system (Applied Biosystems Inc.), and the gene copy number of the HCV replicon RNA in each cell was determined. […]
As a further control for RNA recovery in each assay well, the copy number of cellular Glyceraldehyde-3-phosphate dehydrogenase (GAPDH) mRNA was quantified by real-time RT-PCR with specific primer set and probe (all of these were produced by Takara Shuzo Co., Ltd.) as described above (part3) […]

SMILES: C/C=C/C[C@@H](C)[C@@H](O)[C@H]1C(=O)N[C@@H]([C@@H](C)O)C(=O)N(C)CC(=O)N(C)[C@@H](CC(C)C)C(=O)N[C@@H](CC(C)C)C(=O)N(C)[C@@H](CC(C)C)C(=O)N[C@@H](C)C(=O)N[C@H](C)C(=O)N(C)[C@@H](C[C@H](C)CO)C(=O)N[C@@H](CC(C)C)C(=O)N(C)[C@@H](C(C)C)C(=O)N1C [(2)]
- EC50: < 3000 nM
